Assay: Active ingredient solubility tests in various solvents
Assay type: physicochemical
Procedure: The solubility of {4-[6-ethyl-4′-(1-ethyl-1-hydroxypropyl)-2′-propylbiphenyl-3-yloxymethyl]-2-hydroxymethylphenyl}methanol was tested in various solvents.

Max sol (% w/w) (in Arlamol E): 1.033 % w/w | Max sol (% w/w) (in Cremophor RH40): 3.989 % w/w | Max sol (% w/w) (in Ethanol 95): >20 % w/w | Max sol (% w/w) (in Eutanol G): 0.322 % w/w | Max sol (% w/w) (in IPP): 0.1654 % w/w | Max sol (% w/w) (in Labrafil M1944CS): 0.936 % w/w | Max sol (% w/w) (in Miglyol 812): 0.3167 % w/w | Max sol (% w/w) (in PEG 400): 6.894 % w/w | Max sol (% w/w) (in Primol 352): 0.0009 % w/w | Max sol (% w/w) (in Propylene Glycol): 2.3351 % w/w | Max sol (% w/w) (in Sweet almond oil): 0.0932 % w/w | Max sol (% w/w) (in Transcutol): >20 % w/w
SMILES: CCCc1cc(C(O)(CC)CC)ccc1-c1cc(OCc2ccc(CO)c(CO)c2)ccc1CC [compound 3, {4-[6-ethyl-4′-(1-ethyl-1-hydroxypropyl)-2′-propylbiphenyl-3-yloxymethyl]-2-hydroxymethylphenyl}methanol]

From US20080194528A1, “Pharmaceutical compositions comprising organopolysiloxane elastomers and solubilized bioactive compounds” (GALDERMA RESEARCH AND DEVELOPMENT, priority 2005, published 2008)
